Measured values as given in patent US9173395B2, “Use of substituted isoquinolinones, isoquinolindiones, isoquinolintriones and dihydroisoquinolinones or in each case salts thereof as active agents against abiotic stress in plants” (BAYER INTELLECTUAL PROPERTY GMBH, priority 2011, dated 2015).

What was measured:
[1] = tested on: TRZAS; test: Drought stress test on crop plants, visual damage rating, efficacy EF; type: in vivo, Triticum aestivum; settings: dosage 25 g/ha, mean of three results
Description: (§1) Seeds of monocotyledonous and dicotyledonous crop plants were laid out in sandy loam in wood-fiber pots, covered with soil and cultivated in a greenhouse under good growth conditions. The test plants were treated at the early leaf stage (BBCH10-BBCH13). To ensure uniform water supply before commencement of stress, the potted plants were supplied with the maximum amount of water immediately beforehand by dam irrigation and, after application, transferred into plastic inserts in order to prevent subsequent, excessively rapid drying. The compounds according to the invention, formulated in the form of wettable powders (WP), wettable granules (WG), suspension concentrates (SC) or emulsion concentrates (EC), were sprayed onto the green parts of the plants as an aqueous suspension at an equivalent water application rate of 600 I/ha with addition of 0.2% wetting agent (agrotin). Substance application is followed immediately by stress treatment of the plants (cold or drought stress). […]
(§2) After the recovery phase had ended, the intensities of damage were rated visually in comparison to untreated, unstressed controls of the same age (in the case of drought stress) or the same growth stage (in the case of cold stress). The intensity of damage was first recorded as a percentage (100%=plants have died, 0%=like control plants). […]

[2] = tested on: BRSNS; test: as above; type: in vivo, Brassica napus; settings: dosage 25 g/ha, mean of three results
Description: as §1, §2

O=c1[nH]ccc2ccc(-c3ccc(Cl)cc3F)cc12 [I.1-252, 7-(4-chloro-2-fluorophenyl)isoquinolin-1(2H)-one]
EF (TRZAS) [1]: >5%
EF (BRSNS) [2]: >5%
